Here are results for one compound from PubChem BioAssay AID1159611.

The assay deals with Retinoic acid receptor RXR-alpha (Homo sapiens) (UniProt P19793). Nature of the assay: RXRalpha binders by radioligand displacement, dose response, biochemical, [3H]9-cis-retinoic acid (AID 1159611). The conditions noted are these: RXRalpha [3H]9-cis-retinoic acid displacement binding. On the technique in general: Loss of bound radioactivity is the signal in a displacement assay; it reports binding, not function.

SMILES strings stand for the structures.

Chain of Retinoic acid receptor RXR-alpha (Homo sapiens) (P19793 whole entry, looked up): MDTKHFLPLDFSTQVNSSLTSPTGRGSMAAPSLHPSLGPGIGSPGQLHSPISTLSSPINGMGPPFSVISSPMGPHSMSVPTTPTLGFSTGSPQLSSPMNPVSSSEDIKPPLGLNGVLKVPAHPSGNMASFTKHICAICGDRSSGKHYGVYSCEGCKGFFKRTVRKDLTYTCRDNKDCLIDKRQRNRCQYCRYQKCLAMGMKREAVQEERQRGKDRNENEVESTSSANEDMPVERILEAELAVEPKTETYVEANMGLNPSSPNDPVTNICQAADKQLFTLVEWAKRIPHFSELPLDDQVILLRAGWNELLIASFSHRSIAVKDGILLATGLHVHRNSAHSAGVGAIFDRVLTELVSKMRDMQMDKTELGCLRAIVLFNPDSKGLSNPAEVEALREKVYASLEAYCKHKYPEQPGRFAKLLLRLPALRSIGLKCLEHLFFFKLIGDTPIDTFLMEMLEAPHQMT

Regarding `CC1=C[C@H](O)CC(C)(C)[C@H]1/C=C/C(C)=C/C=C/C(C)=C/C=C/C=C(C)/C=C/C=C(C)/C=C/C1=C(C)C[C@@H](O)CC1(C)C`, the half-maximal inhibitory concentration (IC50) is 5.74 µM.

As a reminder, the IC50 is the midpoint of a concentration-inhibition curve.
